Counter-ions that a name gives are not always drawn.
How the values were obtained:
male rats = assay: Stimulation of sexual behaviour in male rats (pre-copulatory and copulatory counts over 30 minutes); type: in vivo, Sprague Dawley rats; conditions: 10 mg/kg oral
Procedure: The extracts of the current invention were then evaluated for their efficacy in vivo to stimulate sexual behavior in male rats. Briefly, healthy Sprague Dawley rats were acclimatized and randomized into various treatment groups (G1 to G6) as summarized in table 5. These animals were introduced to mating with female counterparts, which were previously treated with 100 μg/rat of estradiol benzoate and 1 mg/rat of progesterone at approximately 48 hours and 4 hours respectively prior to mating. […] The scored test parameters include frequency of licking, anogenital sniffing, climbing, genital grooming, mounting and intromission.
Separately, a set of 42 healthy female rats were selected and each of them were treated with single dose of 100 μg of estradiol benzoate and 1 mg of progesterone at approximately 48 hours and 4 hours respectively prior to introduction to mating.
One hour after test substance administration, each male rat was allowed to mate with a female rat in oestrus phase. Male sexual behaviour was measured for a period of 30 minutes with the aid of video recording. The scored test parameters include frequency of licking, anogenital sniffing, climbing, genital grooming, mounting, intromission and the results are summarized in tables 6 and 7, and depicted in FIG. 1.

cyclic GMP = assay: Plasma cyclic GMP estimation by ELISA after mating period; type: in vivo, Sprague Dawley rats; conditions: 10 mg/kg oral, plasma after 30 minutes mating period
Procedure: After 30 minutes of mating period, blood sample were collected from all animals, plasma separated and subjected to cyclic-GMP estimation using cyclic GMP ELISA Kit supplied by Cayman (Cat No 581022) as per the procedure provided by the manufacturer. The plasma cyclic GMP modulation data is summarized in Table 8 and depicted in FIG. 2.
After 30 minutes of mating period, blood sample was collected from each animal, plasma separated and the cyclic-GMP content was estimated using cyclic GMP ELISA Kit supplied by Cayman (Cat No 581022) as per the procedure provided by the manufacturer.

CCCc1nn(C)c2c(=O)[nH]c(-c3cc(S(=O)(=O)N4CCN(C)CC4)ccc3OCC)nc12 [Sildenafil citrate]
Climbing count Mean ± SE (male rats): 13.50 ± 2.96 | Genital grooming count Mean ± SE (male rats): 15.33 ± 9.20 | Intromission frequency Mean ± SE (male rats): 3.67 ± 2.55 | Mounting count Mean ± SE (male rats): 5.50 ± 2.43 | Sniffing count Mean ± SE (male rats): 25.83 ± 8.55 | Licking count Mean ± SE (male rats; 1 hr before mating, 30 minutes): 14.83 ± 11.32 | Cyclic GMP levels (plasma) (cyclic GMP): 18.79 ± 1.65 pmol/mL | Cyclic GMP levels (plasma) (cyclic GMP; listed as sildenafil citrate): 18.79 pmol/mL

From US11986506B2, “Dietary supplements for inhibiting PDE5 and increasing cGMP levels” (LAILA NUTRACEUTICALS, priority 2017, dated 2024)
